Source: publication PMC4492750, “The discovery of a selective and potent A2a agonist with extended lung retention” (Pharmacology Research & Perspectives, 2015)
Entries after “also recorded” stand apart in the source; their conditions may differ.

Tests used:
heart = test: Investigative rat toxicology study (heart histopathology); assay type: in vivo
Procedure: Rats were intratracheally administrated with compound 2 at 150µg/kg and terminated 24 hours after dosing. Rats in the repeated dose groups received compound 2 at dose level of 1 or 30µg/kg for 4 consecutive days and were terminated 24 hours after the last dose.
The animals were sacrificed by exsanguinations from the common carotid artery under isoflurane anesthesia. The external features were inspected and body weights recorded. The lung together with lower part of the trachea was excised from the thoracic cavity, weighed, and inflated with Formalin via the trachea. Other core organs (heart, kidneys, liver and spleen) were also macroscopically examined, weighed and fixed in buffered Formalin. The collected organs were trimmed and processed to paraffin blocks, sectioned (4µm) and stained with Hematoxylin Eosin (HE) for microscopic examination. Additional heart sections from each animal were collected for immunohistochemistry of Troponin T (see below) and for Masson's Trichrome stain.
The IHC was performed by using Ventanan Discovery XT automated slide processing system, according to the manufacturer’s instructions. In brief, after the antigen retrieval process (Std CC1), the Troponin T antibody (Thermo Scientific, MS-295-P1 diluted 1:50 in Antibody Diluent) was applied on the sections for 60 minutes, followed by incubation with rabbit monoclonal anti-mouse (Epitomics catalog no 3021-1) for 60 minutes and a polymer OmniMap-anti-rabbit HRP Multimer for 16 minutes. The reaction was visualized by using ChromoMap DAB kit. The slides were dehydrated in rising concentration of ethanol, cleared in xylene in an Automatic slide strainer (Sakura, US) and mounted manually with Mountex (00842, Histolab Products AB, Sweden).

[1] = system: blood pressure and heart rate; details: rat, in vivo
Text: A mixed effect model with fixed effects for time after dose, treatment groups, and number of doses, was set up for the analysis of the blood pressure and HR data (SAS v.9.2). A random intercept was included to allow for individual baseline blood pressures, as well as a random effect on the number of doses. Seven days before initiation of the dosing regimen, 24 rats were anaesthetized (isoflurane) and a small telemetry unit (PA-C10, Data Sciences International, USA) was placed subcutaneously on the left side of the throat with the catheter going into the left carotid artery. […] The compound was given by intratracheal instillation as described above, for 5 consecutive days, and blood pressure and heart rate were continuously recorded, apart from the brief period during compound administration.

## CCNC(=O)[C@H]1O[C@@H](n2cnc3c(NC(CC)CC)nc(NCCNC(=O)Nc4cc[n+](C)cc4)nc32)[C@H](O)[C@@H]1O [Compound 2, (2S,3S,4R,5R)-N-ethyl-5-[6-(1-ethylpropylamino)-2-[2-[(1-methylpyridin-1-ium-4-yl)carbamoylamino]ethylamino]purin-9-yl]-3,4-dihydroxy-tetrahydrofuran-2-carboxamide]
heart; 1 μg/kg i.t. for 4 days
  Heart changes: No changes were observed
heart; 30 μg/kg i.t. for 4 days
  Multifocal scar tissue (dense granulation) in heart: three out of five; also recorded: multifocal dense scar tissue in the heart but no acute myocardial necrosis
heart; 30 μg/kg vs 10 μg/kg i.t.
  Dose level with histopathological heart lesions relative to efficacious dose in inflammatory rat lung model: threefold
heart; single dose of 150 μg/kg or repeated doses of 30 μg/kg
  Heart weight relative to body weight: slightly increased
heart; single i.t. dose 150 μg/kg, one day after dose
  Multifocal myocardial necrosis: four of five; also recorded: caused multifocal myocardial necrosis
[1]
  Tachyphylaxis for the HR: did not demonstrate any tachyphylaxis
